Laboratory results as given in US20230141433A1, “TRICYCLIC PESTICIDAL COMPOUNDS” (BASF SE, priority 2020, published 2023).

Assays:
Assay type in all cases: in vivo
[1] = system: green peach aphid (Myzus persicae); assay: Green peach aphid (Myzus persicae) systemic test, artificial diet under membrane; settings: 72 h, 3 days, read-out: mortality in comparison with untreated controls (aphid mortality)
Description: (§1) If not otherwise specified, the test solutions are prepared as follows: The active compound is dissolved at the desired concentration in a mixture of 1:1 (vol:vol) distilled water:acetone. The test solution is prepared at the day of use. Test solutions are prepared in general at concentrations of 2500 ppm, 1000 ppm, 800 ppm, 500 ppm, 300 ppm, 100 ppm and 30 ppm (wt/vol).
Green Peach Aphid (Myzus persicae) For evaluating control of green peach aphid (Myzus persicae) through systemic means the test unit consisted of 96-well-microtiter plates containing liquid artificial diet under an artificial membrane. The compounds were formulated using a solution containing 75% v/v water and 25% v/v DMSO. Different concentrations of formulated compounds were pipetted into the aphid diet, using a custom built pipetter, at two replications. After application, 5-8 adult aphids were placed on the artificial membrane inside the microtiter plate wells. The aphids were then allowed to suck on the treated aphid diet and incubated at about 23±1° C. and about 50±5% relative humidity for 3 days. Aphid mortality and fecundity was then visually assessed.

[2] = system: boll weevil (Anthonomus grandis); assay: Boll weevil (Anthonomus grandis) egg and larval mortality, insect diet in 96-well microtiter plates; settings: 120 h, 5 days, read-out: mortality in comparison with untreated controls (egg and larval mortality)
Description: as §1
Boll Weevil (Anthonomus grandis)
(§2) For evaluating control of boll weevil (Anthonomus grandis) the test unit consisted of 96-well-microtiter plates containing an insect diet and 5-10 A. grandis eggs. The compounds were formula ted using a solution containing 75% v/v water and 25% v/v DMSO. Different concentrations of formulated compounds were sprayed onto the insect diet at 5 μl, using a custom built micro atomizer, at two replications. After application, microtiter plates were incubated at about 25±1° C. and about 75±5% relative humidity for 5 days. Egg and larval mortality was then visually assessed.

[3] = system: yellow fever mosquito (Aedes aegypti); assay: whole plant or invertebrate; settings: 48 h, 2 days, read-out: mortality in comparison with untreated controls (larval mortality)
Description: as §1
Yellow Fever Mosquito (Aedes aegypti)
For evaluating control of yellow fever mosquito (Aedes aegypti) the test unit consisted of 96-well-microtiter plates containing 200 μl of tap water per well and 5-15 freshly hatched A. aegypti larvae. The active compounds were formulated using a solution containing 75% (v/v) water and 25% (v/v) DMSO. Different concentrations of formulated compounds or mixtures were sprayed onto the insect diet at 2.5 μl, using a custom built micro atomizer, at two replications. After application, microtiter plates were incubated at 28±1° C., 80±5% RH for 2 days. Larval mortality was then visually assessed.

[4] = system: tobacco budworm (Heliothis virescens); assay: Tobacco budworm (Heliothis virescens) egg and larval mortality, insect diet in 96-well microtiter plates; settings: 120 h, 5 days, read-out: mortality in comparison with untreated controls (egg and larval mortality)
Description: as §1
Tobacco Budworm (Heliothis virescens)
as §2, with “of tobacco budworm (Heliothis virescens)” for “of boll weevil (Anthonomus grandis)”, “and 15-25 H. virescens” for “and 5-10 A. grandis”, “were formulated” for “were formula ted”, “at 10” for “at 5”, “about 28±1°” for “about 25±1°”, “about 80±5%” for “about 75±5%”

[5] = system: vetch aphid (Megoura viciae); assay: Vetch aphid (Megoura viciae) contact or systemic test on broad bean leaf disks; settings: foliar, 120 h, 5 days, read-out: mortality in comparison with untreated controls (aphid mortality)
Description: as §1
Vetch Aphid (Megoura viciae)
For evaluating control of vetch aphid (Megoura viciae) through contact or systemic means the test unit consisted of 24-well-microtiter plates containing broad bean leaf disks.
The compounds were formulated using a solution containing 75% v/v water and 25% v/v DMSO. Different concentrations of formulated compounds were sprayed onto the leaf disks at 2.5 μl, using a custom built micro atomizer, at two replications. After application, the leaf disks were air-dried and 5-8 adult aphids placed on the leaf disks inside the microtiter plate wells. The aphids were then allowed to suck on the treated leaf disks and incubated at about 23±1° C. and about 50±5% relative humidity for 5 days. Aphid mortality and fecundity was then visually assessed.

Row | Structure (SMILES) | mortality at 800 ppm [1] | mortality at 800 ppm [2] | mortality at 800 ppm [3] | mortality at 800 ppm [4] | mortality at 2500 ppm [5] | mortality at 2500 ppm [1] | mortality at 2500 ppm [2] | mortality at 2500 ppm [4]
1 | CCS(=O)(=O)c1c(-c2nc3cnc4c(OC(F)(F)F)cccc4c3n2C)nc2ncccn12 [C-17] | > 75% |  |  |  |  |  |  | 
2 | CCS(=O)(=O)c1c(-c2cn3c(ccc4c(C(F)(F)F)ccnc43)n2)nn2ccccc12 [C-10] | > 75% | > 75% |  |  |  |  |  | 
3 | CCS(=O)(=O)c1c(-c2cn3c(ccc4c(C(F)(F)F)ccnc43)n2)nc2ccc(C(F)(F)F)cn12 [C-9] | > 75% | > 75% | ≥ 75% | > 75% |  |  |  | 
4 | CCS(=O)(=O)c1c(-c2nc3cnc4cc(C(F)(F)F)ccc4c3n2C)nc2ncccn12 [C-18] |  |  |  | > 75% |  |  |  | 
5 | CCS(=O)(=O)c1c(-c2nc3cc(C(F)(F)F)c4ncccc4c3n2C)nc2ccccn12 [C-11, 2-(3-ethylsulfonylimidazo[1,2-a]pyridin-2-yl)-1-methyl-5-(trifluoromethyl)imidazo[4,5-f]quinoline] | > 75% | > 75% |  | > 75% |  |  |  | 
6 | CCS(=O)(=O)c1c(-c2nc3cnc4c(C(F)(F)F)cccc4c3n2C)nc2ccc(Br)cn12 [C-28] | > 75% | > 75% | ≥ 75% | > 75% |  |  |  | 
7 | CCS(=O)(=O)c1c(-c2nc3cnc4c(C(F)(F)F)cccc4c3n2C)nc2ccccn12 [C-3] |  |  | ≥ 75% |  | > 75% | > 75% | > 75% | > 75%
8 | CCS(=O)(=O)c1c(-c2cn3c(ccc4c(C(F)(F)F)cc(C(F)(F)F)nc43)n2)nc2ccc(C(F)(F)F)cn12 [C-8] |  | > 75% |  | > 75% |  |  |  | 
9 | CCS(=O)(=O)c1c(-c2nc3cnc4c(C(F)(F)F)cccc4c3n2C)nn2ccccc12 [C-19] | > 75% | > 75% | ≥ 75% | > 75% |  |  |  | 
10 | CCS(=O)(=O)c1c(-c2nc3cnc4c(OC(F)(F)F)cccc4c3n2C)nc2ccc(C(F)(F)F)cn12 [C-1] |  |  | ≥ 75% |  | > 75% | > 75% | > 75% | > 75%
11 | CCS(=O)(=O)c1c(-c2nc3cnc4c(C(F)(F)F)cccc4c3n2C)nc2ccc(C(F)(F)F)cn12 [C-2] |  |  | ≥ 75% |  | > 75% | > 75% | > 75% | > 75%
12 | CCS(=O)(=O)c1c(-c2nc3cnc4c(OC(F)(F)F)cccc4c3n2C)nn2ccc(C(C)(C)C#N)cc12 [C-22] | > 75% | > 75% |  | > 75% |  |  |  | 
13 | CCS(=O)(=O)c1c(-c2cn3c(ccc4c(C(F)(F)F)ccnc43)n2)nc2ccccn12 [C-7, 8-(3-ethylsulfonylimidazo[1,2-a]pyridin-2-yl)-4-(trifluoromethyl)imidazo[1,2-a][1,8]naphthyridine] |  |  | ≥ 75% |  |  | > 75% | > 75% | > 75%
14 | CCS(=O)(=O)c1c(-c2nc3cnc4cc(OC(F)(F)F)ccc4c3n2C)nc2ncccn12 [C-15] | > 75% |  |  |  |  |  |  | 
15 | CCS(=O)(=O)c1c(-c2nc3cnc4c(C(F)(F)F)cccc4c3n2C)nc2n1CCCC2 [C-12] | > 75% | > 75% | ≥ 75% | > 75% |  |  |  | 
16 | CCS(=O)(=O)c1c(-c2nc3cnc4c(C(F)(F)F)cccc4c3n2C)nc2ncccn12 [C-16] | > 75% |  |  |  |  |  |  | 
17 | CCS(=O)(=O)c1c(-c2nc3cnc4cc(OC(F)(F)F)ccc4c3n2C)nc2n1CCCC2 [C-14] | > 75% |  |  | > 75% |  |  |  | 
18 | CCS(=O)(=O)c1c(-c2nc3cnc4cc(C(F)(F)F)ccc4c3n2C)nc2ccc(Br)cn12 [C-27] |  | > 75% | ≥ 75% | > 75% |  |  |  | 
19 | CCS(=O)(=O)c1c(-c2nc3cnc4cc(C(F)(F)F)ccc4c3n2C)nn2ccccc12 [C-20] |  | > 75% |  | > 75% |  |  |  | 
20 | CCS(=O)(=O)c1c(-c2nc3cnc4cc(OC(F)(F)F)ccc4c3n2C)nn2ccc(C(C)(C)C#N)cc12 [C-23] |  | > 75% |  | > 75% |  |  |  | 
21 | CCS(=O)(=O)c1c(-c2nc3cnc4cc(OC(F)(F)F)ccc4c3n2C)nn2ccccc12 [C-29] | > 75% | > 75% | ≥ 75% | > 75% |  |  |  | 
22 | CCS(=O)(=O)c1c(-c2nc3cnc4c(OC(F)(F)F)cccc4c3n2C)nc2ccccn12 [C-4, 2-(3-ethylsulfonylimidazo[1,2-a]pyridin-2-yl)-1-methyl-6-(trifluoromethoxy)imidazo[4,5-c]quinoline] |  |  | ≥ 75% |  | > 75% | > 75% | > 75% | > 75%
23 | CCS(=O)(=O)c1c(-c2nc3cnc4cc(C(F)(F)F)ccc4c3n2C)nc2ccccn12 [C-6] |  |  |  |  |  |  | > 75% | > 75%
